According to patent publication US20240261296A1, “THERAPEUTIC MODALITIES FOR INHIBITING PANCREATIC BETA CELL IMPAIRMENT AND TREATING DIABETES” (Hadasit Medical Research Serices & Development Ltd., priority 2021, published 2024):

Key:
MIN6 cells [1] = assay: rescue of MIN6 cells from palmitate-induced apoptosis (cleaved caspase 3 western blot; FACS SubG1); assay type: cell-based, murine; conditions: palmitic acid 0.3 mM, 48 hours; compared to L-798106
Description: (§1) Islet and cell culture: The pancreatic β-cell line MIN6, which is a clonal murine insulin-secreting line, was cultured in DMEM (Biological Industries, Beit Haemek, Israel) supplemented with 11 mM Glucose, 2 mM glutamine, 15% heat-inactivated fetal calf serum (FCS), 100 U/ml penicillin, 100 µg/ml streptomycin and 61 μM β-mercaptoethanol. Human islets were obtained from the European Consortium for Islet Transplantation (ECIT) at the San Raffaele Hospital and from the Niguarda Hospital, (Milan, Italy) and cultured in CMRL-1066 media (Biological Industries, Beit HaEmek, Israel) supplemented with 10% FCS, 5.5 mM glucose, 2 mM L-Glutamine, 100 U/ml penicillin, 100 μg/ml streptomycin and 150 μg/ml gentamycin. Palmitate was added to 1% FCS and 0.5% defatted BSA (Roche, Germany).
Western blotting: Cells were lyzed in Laemmli protein sample buffer, separated on SDS-polyacrylamide gel, and transferred to […] nitrocellulose membranes (Schleicher and Schuell, Dassel, Germany). After blocking in 5% dried skimmed milk, the membranes were first incubated with the appropriate antibodies against: cleaved caspase-3 (Asp175) (Cell Signaling Technology Danvers, MA) and α-tubulin (Sigma-Aldrich.) and then with horseradish peroxidase conjugated anti-rabbit or anti-mouse IgG, followed by analysis with an enhanced chemiluminescence detection kit (Biological Industries, Israel).
The remaining compounds were screened for the ability to rescue β-cells from palmitate-induced apoptosis as compared to the commercial EP3 antagonist L-798106 by measuring the levels of the cleaved caspase 3 apoptotic marker, using Western Blot analysis (FIG. 1). […] Cell extracts were analyzed by western blotting for the presence of cleaved caspase 3 as compared to α-Tubulin.
The ability of the compounds to rescue β-cells from apoptosis was also evaluated using FACS analysis and measuring the SubG1 population (FIG. 2). […] Collected cells were analyzed by FACS and the SubG1 fractions (representing apoptotic cell products or components were compared. The average of 4-6 independent experiments is presented in FIG. 2.

human islet cells = assay: Caspase-Glo 3/7 assay in palmitic acid-treated human islets; assay type: cell-based; parameters: rescuing human islet cells from apoptosis, compared with L-798106 / inhibiting or reversing palmitate-induced apoptosis in pancreatic islets of both human donors / inhibition of palmitate-induced apoptosis in human islets, donor 1: dose or concentration left out as unconfirmed; conditions: for rescuing human islet cells from apoptosis, compared with L-798106: two human donors
Description: as §1
(§2) Next, the ability of the compounds to rescue human islet cells from palmitate-induced apoptosis was determined. To this end, the Caspase-Glo 3/7 assay reagent (Promega) was used for caspase 3/7 detection in palmitic acid-treated cells. The reagent provides a proluminescent caspase-3/7 substrate, which contains the tetrapeptide sequence DEVD, in combination with luciferase and a cell-lysing agent. The addition of the reagent directly to the wells results in cell lysis, followed by caspase cleavage of the DEVD substrate, and the generation of luminescence.
Accordingly, human islets from two donors were exposed to the various compounds or to L-798106 for 48 h in the presence of palmitic acid, and the bioluminescence was measured as compared to control cells. FIGS. 3A-3B show the results of the treatment with […] of the compounds in two human donors (FIG. 3A—donor 1, FIG. 3B—donor 2). PA: Palmitate; L: L-798106; RLU: Relative Light Units. The results are average of triplicates or quadruplicates ±SEM (except in islets from L-798106 treated donor 2, representing duplicates).
Next, various concentrations of the compounds were tested in human pancreatic islet cells. Cells obtained from the first healthy donor (donor 1) were incubated in the presence or absence of PA with C13, C5 or L-798106 (L) at concentrations of 5, 2.5 and 0.5 μM. Caspase 3/7 enzymatic activity was measured as described above. The enzymatic activity is presented in FIG. 5A for 5 μM, FIG. 5B for 2.5 μM and FIG. 5C for 0.5 μM as relative light units (RLU/μg protein) and the graphs represent the average of n=3-4.

MIN6 cells [2] = assay: Caspase 3/7 enzymatic activity in palmitic acid-treated MIN6 cells; assay type: cell-based, murine; conditions: 250 nM, 24 h
Description: as §2
Following the initial screening results, compounds C13 and C5 were tested at different doses for their ability to reduce palmitate-induced apoptosis. To this end, MIN6 cells were exposed to 250 nM of the tested compounds in the presence of palmitic acid (PA) for 24 h, or to PA alone. Caspase 3/7 enzymatic activity was measured as described in Example 3, and the results, presented in FIG. 4 represent the average ±SEM of triplicates or quadruplicates.

INS1 and INS2 genes = assay: insulin gene expression in palmitate-treated MIN6 cells (real-time PCR); assay type: cell-based, murine; conditions: 10 μM, in the presence of palmitate
Description: Real-time PCR: Total RNA from MIN6 cells or islets was extracted using TRIzol (Invitrogen, Carlsbad, CA, USA) and 2 μg of total RNA was converted to cDNA using SuperScript® III Reverse Transcriptase (Invitrogen, Carlsbad, CA, USA). 2.5-5 ng cDNA was used for each real-time PCR reaction. Real-time reaction was performed using Platinum SYBR Green qPCR SuperMix-UDG with ROX reference dye (Applied Biosystems). The primers used were as follows: GAPDH forward (F): […]; GAPDH reverse (R): […]; Ins1 (F): AACCCCCAGCCCTTAGTGA; (R): […]; Ins2 (F): […]; (R): […] (SEQ ID Nos: 1-6, respectively). Additional primers used as controls are directed to HPRT, as follows: HPRT (F): […] HPRT (R) […] (SEQ ID Nos: 7-8, respectively).
PA decreases the expression of β-cell specific genes, including insulin. The effect of the selected compounds on insulin gene expression was further tested in MIN6 cells. Rodent β-cells have two insulin genes (INS1 and INS2). MIN6 cells were exposed to C5 or L-798106 (10 μM) in the presence or absence of palmitic acid, and mRNAs insulin levels were measured by real-time PCR. FIGS. 6A-6B present the expression levels of INS1 and INS2 genes, respectively, normalized to GAPDH expression levels. Data of n=3±SEM is presented.

Structure (SMILES)	rescue of β-cells from palmitate-induced apoptosis (cleaved caspase 3; SubG1 population) (MIN6 cells [1])	inhibition of palmitate-induced apoptosis in human islets, compared with L-798106 (human islet cells; donor 1, 5, 2.5 and 0.5 μM)	rescuing human islet cells from apoptosis, compared with L-798106 (human islet cells; palmitic acid, 48 h)	palmitate-induced apoptosis (caspase 3/7 activity) (MIN6 cells [2])	effect on insulin gene expression relative to L-798106 (INS1 and INS2 genes)	insulin gene expression (INS1, INS2) normalized to GAPDH (INS1 and INS2 genes)	efficacy at all tested concentrations (human islet cells; donor 1, 5, 2.5 and 0.5 μM)	inhibiting or reversing palmitate-induced apoptosis in pancreatic islets of both human donors (human islet cells; palmitic acid, 48 h)
CC[C@H](C)c1ccc(S(=O)(=O)Nc2ccccc2C(=O)N2C[C@@H](C)O[C@@H](C)C2)cc1 [Compound C5, 4-((S)-sec-butyl)-N-(2-((2S,6R)-2,6-dimethylmorpholine-4-carbonyl)phenyl)benzenesulfonamide]	exceptionally high efficacy	to a greater extent than L-798106	to a greater extent than the EP3 antagonist L-798106	significantly reduced	appeared to be more significant	enhanced insulin gene expression		
CC[C@@H]1CC[C@H](C)N1C(=O)c1cccc(NS(=O)(=O)c2ccc(C)c(F)c2)c1 [Compound C13, N-(3-((2R,5S)-2-ethyl-5-methylpyrrolidine-1-carbonyl)phenyl)-3-fluoro-4-methylbenzenesulfonamide]	exceptionally high efficacy	to a greater extent than L-798106	to a greater extent than the EP3 antagonist L-798106	significantly reduced			remarkable efficacy	particularly high efficacy
COc1ccc(Br)cc1S(=O)(=O)NC(=O)/C=C/c1ccccc1Cc1ccc2ccccc2c1 [Compound L-798106, (2E)-N-[(5-bromo-2-methoxyphenyl)sulfonyl]-3-[2-(2-naphthalenylmethyl)phenyl]-2-propenamide, reference compound]						enhanced insulin gene expression		
